Experimental data published in article PMC12177571, “Glycosidase-activated prodrugs of a cytotoxic iron chelator for targeted cancer therapy” (RSC Medicinal Chemistry, 2025).

How the values were obtained:
[1] = Stability in PBS without enzyme (HPLC control group); type: physicochemical; settings: 100 μM in PBS, no enzyme, 37°C, up to 48 h
Description: Additional selectivity control experiments were conducted, in which either no enzyme or an “incorrect” enzyme such as an esterase was used (see Fig. S13–S24 in the ESI ^†).
(§1) The three following enzymes were employed in this study:
(§2) (1) esterase from porcine liver sourced from Sigma Aldrich as dry powder with an activity of 229.4 units/mg protein as indicated by the supplier for the received lot; (2) β-glucosidase from almonds sourced from Sigma Aldrich as dry powder with an activity of 11.7 U/mg as indicated by the supplier for the received lot
(§3) (3) β-galactosidase from e.coli overproducer sourced from Roche as prepared aqueous solution with an activity of 1500 units/mL protein as indicated by the supplier for the […]
(§4) As indicated for each experiment below, the respective enzyme was dissolved in PBS buffer and diluted as appropriate to produce the desired concentration.
25 mM stock solutions in DMSO were prepared for 2a, 2b, 3a, and 3b. From these stock solutions, 4 µL was added to 1 mL of PBS buffer, respectively, in separate glass vials, achieving a final concentration of 100 µM. […]
In the control group, no enzyme was introduced. […] Aliquots were extracted from each vial after 24 and 48 hours, respectively, and analyzed as described below.
The extracted aliquots were analyzed via high-performance liquid chromatography (HPLC) with ultraviolet (UV) detection at a wavelength of 254 nm. […]

[2] = target: T1, β-galactosidase (Escherichia coli, UniProt P00722); test: AIE fluorescence study of release of 1 with β-galactosidase; type: biochemical, e.coli; settings: for Relative emission intensity at 480 nm: 20 μM in water; for Fluorescence emission / release of 1 (in words): water, three enzyme units of β-galactosidase, 0 h and 24 h
T1 construct: purchased Roche; host or cells: E. coli overproducer
Description: (§5) The AIE fluorescence properties of 1 were used as a means of supporting the above conclusion. The emission of all glycosylated prodrugs is suppressed. Thus, solutions of each prodrug were prepared in water, and three enzyme units of β-galactosidase or β-glucosidase, as appropriate, were added to the prodrugs. Each mixture was then analysed by fluorescence spectroscopy after 24 h of incubation. […] This finding is consistent with a lack of enzymatic activation.
Fig. 4 Relative emission intensity at 480 nm (*for 3b at 420 nm) of evaluated compounds at 20 μM before and after incubation with 3 U of the appropriate enzyme. TEXT PRINTED IN THE PICTURE: 1: Relative Emission 480 nm: 100% (Before incubation); Relative Emission 480 nm: 100% (After 24 h incubation) | 2a: Relative Emission 480 nm: 0% (Before incubation); Relative Emission 480 nm: 0% (After 24 h incubation) | 2b: Relative Emission 480 nm: 0% (Before incubation); Relative Emission 480 nm: 1% (After 24 h incubation) | 3a: Relative Emission 480 nm: 1% (Before incubation); Relative Emission 480 nm: 33% (After 24 h incubation) | 3b*: Relative Emission 480 nm: 1% (Before incubation); Relative Emission 480 nm: 11% (After 24 h incubation) […]
Figure S25: Fluorescence spectra for excitation (blue) and emission (green) of 1 at a concentration of 20 μM in water.
Figure S26: Fluorescence spectra for excitation (blue) and emission (green) of 2a at a concentration of 20 μM in water before (left) and after (right) incubation with 3 units of b-galactosidase for 24 h. […]
Figure S28: Fluorescence spectra for excitation (blue) and emission (green) of 3a at a concentration of 20 μM in water before (left) and after (right) incubation with 3 units of β-galactosidase for 24 h. […]

[3] = tested on: β-glucosidase; test: Enzymatic cleavage study (HPLC) with β-glucosidase; type: biochemical, almonds; settings: for Release of 1 (HPLC): 100 μM prodrug in PBS, 2 units β-glucosidase, 37°C
Description: To test the desired, selective enzymatic cleavage and further evaluate compound stability, solutions of each prodrug were prepared in phosphate-buffered saline (PBS), and either β-galactosidase or β-glucosidase were added. After incubation times of 24 h and 48 h, samples from each mixture were analyzed by HPLC to gain insight into the relative amounts of both the remaining prodrug and the liberated 1.
Fig. 3 HPLC traces after 48 h of enzyme incubation for the prodrugs of this study as indicated at their respective peaks. The identity of the employed enzyme is indicated on the left of the chromatogram and the identity of each observed compound is shown above the respective peak. Chromatograms are shown with an offset of 2 along the ordinate to facilitate comparison.
as §1, §2, §3, §4
25 mM stock solutions in DMSO were prepared for 2a, 2b, 3a, and 3b. […]
[…] The vials were then assigned to one of three experimental groups: control, negative, and positive.
In the control group, no enzyme was introduced. […]
All vials were incubated in a 37°C water bath for 48 hours. Aliquots were extracted from each vial after 24 and 48 hours, respectively, and analyzed as described below.
The extracted aliquots were analyzed via high-performance liquid chromatography (HPLC) with ultraviolet (UV) detection at a wavelength of 254 nm. Chromatograms were plotted with an offset of 1 along the y-axis to allow clear intercomparison of the data across the […]

[4] = tested on: β-glucosidase; test: AIE fluorescence study of release of 1 with β-glucosidase; type: biochemical, almonds; settings: for Relative emission intensity at 480 nm (for 3b at 420 nm): 20 μM in water; for Fluorescence emission / release of 1 (in words): water, three enzyme units of β-glucosidase, 0 h and 24 h
Description: as §5
Fig. 4 Relative emission intensity at 480 nm (*for 3b at 420 nm) of evaluated compounds at 20 μM before and after incubation with 3 U of the appropriate enzyme. TEXT PRINTED IN THE PICTURE: 1: Relative Emission 480 nm: 100% (Before incubation); Relative Emission 480 nm: 100% (After 24 h incubation) | 2a: Relative Emission 480 nm: 0% (Before incubation); Relative Emission 480 nm: 0% (After 24 h incubation) | 2b: Relative Emission 480 nm: 0% (Before incubation); Relative Emission 480 nm: 1% (After 24 h incubation) | 3a: Relative Emission 480 nm: 1% (Before incubation); Relative Emission 480 nm: 33% (After 24 h incubation) | 3b*: Relative Emission 480 nm: 1% (Before incubation); Relative Emission 480 nm: 11% (After 24 h incubation)
Figure S25: Fluorescence spectra for excitation (blue) and emission (green) of 1 at a concentration of 20 μM in water. […]
Figure S27: Fluorescence spectra for excitation (blue) and emission (green) of 2b at a concentration of 20 μM in water
before (left) and after (right) incubation with 3 units of b-glucosidase for 24 h. […]
Figure S29: Fluorescence spectra for excitation (blue) and emission (green) of 3b at a concentration of 20 μM in water
before (left) and after (right) incubation with 3 units of β-glucosidase for 24 h. […]

[5] = after 24 h incubation with 3 U β-galactosidase
[6] = before incubation with 3 U β-galactosidase
[7] = after 24 h incubation with 3 U β-glucosidase
[8] = before incubation with 3 U β-glucosidase

T1 sequence (P00722 2-1024): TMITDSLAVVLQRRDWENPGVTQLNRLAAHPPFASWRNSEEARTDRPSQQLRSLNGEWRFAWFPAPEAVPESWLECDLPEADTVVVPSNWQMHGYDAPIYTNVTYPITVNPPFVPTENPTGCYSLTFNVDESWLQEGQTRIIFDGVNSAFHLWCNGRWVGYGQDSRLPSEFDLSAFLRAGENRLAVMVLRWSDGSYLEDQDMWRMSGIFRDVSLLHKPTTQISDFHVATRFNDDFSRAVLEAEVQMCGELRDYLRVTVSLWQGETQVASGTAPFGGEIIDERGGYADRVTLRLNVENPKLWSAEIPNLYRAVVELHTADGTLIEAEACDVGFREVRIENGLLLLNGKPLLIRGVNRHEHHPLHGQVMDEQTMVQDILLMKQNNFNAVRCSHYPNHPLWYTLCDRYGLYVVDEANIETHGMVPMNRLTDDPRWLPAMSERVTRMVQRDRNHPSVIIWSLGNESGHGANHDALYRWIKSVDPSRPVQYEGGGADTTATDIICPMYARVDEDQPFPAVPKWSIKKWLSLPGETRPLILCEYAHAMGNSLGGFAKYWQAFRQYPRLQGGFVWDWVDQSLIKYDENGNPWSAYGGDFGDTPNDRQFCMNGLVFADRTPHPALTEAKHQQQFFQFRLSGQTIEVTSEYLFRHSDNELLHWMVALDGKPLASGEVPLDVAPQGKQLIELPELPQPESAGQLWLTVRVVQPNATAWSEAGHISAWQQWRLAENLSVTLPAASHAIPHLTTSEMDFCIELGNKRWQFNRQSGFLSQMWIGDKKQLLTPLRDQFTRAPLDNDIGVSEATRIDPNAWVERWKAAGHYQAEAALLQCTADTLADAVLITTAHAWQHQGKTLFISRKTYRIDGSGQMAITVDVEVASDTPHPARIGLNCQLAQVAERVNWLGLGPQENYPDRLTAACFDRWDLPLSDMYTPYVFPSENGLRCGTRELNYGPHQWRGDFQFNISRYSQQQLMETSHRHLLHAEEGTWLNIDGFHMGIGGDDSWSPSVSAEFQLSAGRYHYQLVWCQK

SMILES | Stability in PBS / aqueous media [1] | Relative emission intensity at 480 nm [2, 5] | Relative emission intensity at 480 nm [2, 6] | Fluorescence emission / release of 1 (in words) [2] | Release of 1 (HPLC) ([3]; 24 h) | Release of 1 (HPLC) ([3]; 48 h) | Relative emission intensity at 480 nm (for 3b at 420 nm) [4, 7] | Relative emission intensity at 480 nm (for 3b at 420 nm) [4, 8] | Fluorescence emission / release of 1 (in words) [4] | Cleavage of 1 from prodrug (HPLC of the fluorescence sample) ([3]; 20 μM in water, 3 enzyme units of β-glucosidase, 24 h)
OC[C@H]1OC(Oc2ccccc2-c2nc(-c3ccccc3O)nn2-c2ccccc2)[C@H](O)[C@@H](O)[C@H]1O (stereo partly shown) [2a] | good stability in aqueous media | 0% | 0% | no fluorescence emission was observed | – | – | – | – | – | –
OC[C@H]1OC(Oc2ccccc2-c2nc(-c3ccccc3O)nn2-c2ccccc2)[C@H](O)[C@@H](O)[C@@H]1O (stereo partly shown) [2b] | good stability in aqueous media | – | – | – | no release of 1 was observed | no release of 1 was observed | 1% | 0% | no fluorescence emission was observed | –
OC[C@H]1OC(Oc2ccc(COc3ccccc3-c3nc(-c4ccccc4O)nn3-c3ccccc3)cc2)[C@H](O)[C@@H](O)[C@H]1O (stereo partly shown) [3a] | – | 33% | 1% | readily discernible release of 1 | – | – | – | – | – | –
OC[C@H]1OC(Oc2ccc(COc3ccccc3-c3nc(-c4ccccc4O)nn3-c3ccccc3)cc2)[C@H](O)[C@@H](O)[C@@H]1O (stereo partly shown) [3b] | – | – | – | – | significant release of 1 | further increased | 11% | 1% | less pronounced emission | successful cleavage
